Reference: patent US20240368351A1, “FACTORS CONTROLLING DRUG RELEASE IN CROSS-LINKED POLY(VALEROLACTONE) BASED MATRICES” (Pendant Biosciences, Inc., priority 2019, published 2024)
Values after ≈ are worked out from the molar mass of the structure shown.

How the values were obtained:
[1] = In vitro drug release from cross-linked matrices (CPs), sample-and-separate, with mathematical modeling (Fick diffusion); type: physicochemical
Procedure: Evaluation of in vitro drug release: impact of the nature of the drug, polymer and release media: In the in vitro release studies the impact of a number of variables was evaluated including nature of the drug, compatibility between the drug and the polymer matrix, degree of crystallinity of the matrix, M.W. of the copolymer, cross-linking density and the composition of the release media. The commonly used, sample-and-separate method was employed to evaluate drug release from the cross-linked matrices. D'Souza, S. S.; DeLuca, P. P. Methods to Assess in vitro Drug Release from Injectable Polymeric Particulate Systems. Pharmaceutical Research 2006, 23, 3, 460-474.
The Peppas-Sahlin model, where diffusion and polymer relaxation are known to be the underlying drivers of drug release provided the best fit in terms of R^2adjusted (FIGS. 8A and 8C) For cylindrical shaped matrices, Fickian diffusion is considered to be operative when the ratio of diameter to thickness (n or m) of the matrix is equal to or less than 0.45. If the value is […], the drug release mechanism is considered non-Fickian; whereas, if n is 0.89 drug release is considered to be case II transport. Herein, the dimension and the geometry of the matrices evaluated have a value of 0.78<n<0.80. […]
Protocols for drug analysis by HPLC and cytotoxicity evaluation of the cross-linked matrices: The drug release was analyzed by reverse phase HPLC using an Agilent 1200 HPLC system with Agilent ChemStation software, an XDB C18 column (150×4.6 mm i.d+guard column) and UV detection. […] Drug concentrations were quantified using calibration curves using standards that ranged in concentration from 1 to 100 μg/ml (0.9986≤R^2≤1).
The CPs were incubated at 37° C. under constant stirring and at pre-determined time points, a 1 ml aliquout was removed and replaced with 1 mL of fresh media and the samples were immediately frozen at −20° C. for storage prior to HPLC analysis. […] The drug was reconstituted in 1 ml of the HPLC mobile phase and analyzed to correct the DLC and release curves. […]

[2] = Stability of Drug X freebase in PBS with or without SDS by HPLC; type: physicochemical
Source text: The appearance of second peak correlates with concentration of the drug.

[3] = Solubility of Drug X in organic solvents and water; type: physicochemical
[4] = cited from earlier work
[5] = Drug solubility in different release media (PBS with Tween 80 or SDS); type: physicochemical; details: release media (PBS with Tween 80 or SDS), 37 °C, pH 7.4, aqueous with cosolvent or surfactant or cyclodextrin, thermodynamic from solid
Procedure: Mikkelsen, L. M., Enzyme solubility in liquid detergent and use of detergent composition. […] Crotts, G.; Park, T. G. Protein delivery from poly(lactic-co-glycolic acid) biodegradable microspheres: Release kinetics and stability issues. […] FDA.
The solutions were centrifuged at 8000 rpm for 10 minutes, and a 1 ml aliquot was withdrawn, filtered through a 0.45 μm nylon membrane, and analyzed by HPLC.

[6] = PBS with SDS, 120 μg/ml, 2 days
[7] = PBS with SDS, 120 μg/ml, 3 days
[8] = PBS with SDS, 120 μg/ml, 4 days

## CC(=O)Nc1ccc(O)cc1 [Acetaminophen, acetaminophen]
[1]; from all matrices, PBS with 0.5% SDS, 37° C.
  period of release: less than a week

## CC(C)OC(=O)[C@H](C)N[P@](=O)(CO[C@H](C)Cn1cnc2c(N)ncnc21)Oc1ccccc1 [Drug X freebase]
[2]; PBS with 0.5% SDS
  area of the HPLC peak corresponding to Drug X freebase as a function of time: constantly decreased as a function of time
[2]; PBS with SDS, 12 μg/ml, 1 hr
  Area (Drug X freebase peak): 191.5
[2]; PBS with SDS, 12 μg/ml, 3 hrs
  Area (Drug X freebase peak): 185.7
[2]; PBS with SDS, 12 μg/ml, 7 hrs
  Area (Drug X freebase peak): 182.8
[2]; PBS with SDS, 12 μg/ml, 1 day
  Area (Drug X freebase peak): 179.2
[2]; PBS with SDS, 12 μg/ml, 2 days
  Area (Drug X freebase peak): 178.7
[2]; PBS with SDS, 12 μg/ml, 3 days
  Area (Drug X freebase peak): 155.2
[2]; PBS with SDS, 12 μg/ml, 4 days
  Area (Drug X freebase peak): 155.8
[2]; PBS with SDS, 12 μg/ml, T = 0
  Area (Drug X freebase peak): 192.6
[2]; PBS with SDS, 60 μg/ml, 1 hr
  Area (2nd) second peak: (99.6)
  Area (Drug X freebase peak): 934.7
[2]; PBS with SDS, 60 μg/ml, 3 hrs
  Area (2nd) second peak: (85.18)
  Area (Drug X freebase peak): 909.05
[2]; PBS with SDS, 60 μg/ml, 7 hrs
  Area (2nd) second peak: (95.5)
  Area (Drug X freebase peak): 906.7
[2]; PBS with SDS, 60 μg/ml, 1 day
  Area (2nd) second peak: (87.6)
  Area (Drug X freebase peak): 867.8
[2]; PBS with SDS, 60 μg/ml, 2 days
  Area (2nd) second peak: (77.0)
  Area (Drug X freebase peak): 783.7
[2]; PBS with SDS, 60 μg/ml, 3 days
  Area (2nd) second peak: (72.3)
  Area (Drug X freebase peak): 712.2
[2]; PBS with SDS, 60 μg/ml, 4 days
  Area (2nd) second peak: (68.1)
  Area (Drug X freebase peak): 677.3
[2]; PBS with SDS, 60 μg/ml, T = 0
  Area (2nd) second peak: (73.9)
  Area (Drug X freebase peak): 929.6
[2]; PBS with SDS, 120 μg/ml, 1 hr
  Area (2nd) second peak: (223.0)
  Area (Drug X freebase peak): 1768.4
[2]; PBS with SDS, 120 μg/ml, 3 hrs
  Area (2nd) second peak: (219.47)
  Area (Drug X freebase peak): 1764.9
[2]; PBS with SDS, 120 μg/ml, 7 hrs
  Area (2nd) second peak: (212.8)
  Area (Drug X freebase peak): 1707.5
[2]; PBS with SDS, 120 μg/ml, 1 day
  Area (2nd) second peak: (189.8)
  Area (Drug X freebase peak): 1613.5
[2]; [6]
  Area (2nd) second peak: (193.9)
  Area (Drug X freebase peak): 1539.2
[2]; [7]
  Area (2nd) second peak: (167.5)
  Area (Drug X freebase peak): 1401.2
[2]; [8]
  Area (2nd) second peak: (160.3)
  Area (Drug X freebase peak): 1318.3
[2]; PBS with SDS, 120 μg/ml, T = 0
  Area (2nd) second peak: (218.0)
  Area (Drug X freebase peak): 1849.3
[2]; PBS without SDS, regardless of concentration
  HPLC peak corresponding to Drug X free base as a function of time: constantly decreasing as a function of time
[2]; Table 47, PBS with SDS, 12 μg/ml, 1 hr
  Area (Drug X freebase peak): 164.51
[2]; Table 47, PBS with SDS, 12 μg/ml, 3 hrs
  Area (Drug X freebase peak): 162.2
[2]; Table 47, PBS with SDS, 12 μg/ml, 7 hrs
  Area (Drug X freebase peak): 161.0
[2]; Table 47, PBS with SDS, 12 μg/ml, 1 day
  Area (Drug X freebase peak): 132.2
[2]; Table 47, PBS with SDS, 12 μg/ml, 2 days
  Area (Drug X freebase peak): 103.6
[2]; Table 47, PBS with SDS, 12 μg/ml, 3 days
  Area (Drug X freebase peak): 84.2
[2]; Table 47, PBS with SDS, 12 μg/ml, 4 days
  Area (Drug X freebase peak): 57.5
[2]; Table 47, PBS with SDS, 12 μg/ml, T = 0
  Area (Drug X freebase peak): 169.2
[2]; Table 47, PBS with SDS, 60 μg/ml, 1 hr
  Area (Drug X freebase peak): 897.8
[2]; Table 47, PBS with SDS, 60 μg/ml, 3 hrs
  Area (Drug X freebase peak): 875.2
[2]; Table 47, PBS with SDS, 60 μg/ml, 7 hrs
  Area (Drug X freebase peak): 850.6
[2]; Table 47, PBS with SDS, 60 μg/ml, 1 day
  Area (Drug X freebase peak): 663.9
[2]; Table 47, PBS with SDS, 60 μg/ml, 2 days
  Area (Drug X freebase peak): 511.8
[2]; Table 47, PBS with SDS, 60 μg/ml, 3 days
  Area (Drug X freebase peak): 361.7
[2]; Table 47, PBS with SDS, 60 μg/ml, 4 days
  Area (Drug X freebase peak): 303.9
[2]; Table 47, PBS with SDS, 60 μg/ml, T = 0
  Area (Drug X freebase peak): 903.4
[2]; Table 47, PBS with SDS, 120 μg/ml, 1 hr
  Area (Drug X freebase peak): 1797.8
[2]; Table 47, PBS with SDS, 120 μg/ml, 3 hrs
  Area (Drug X freebase peak): 1790.0
[2]; Table 47, PBS with SDS, 120 μg/ml, 7 hrs
  Area (Drug X freebase peak): 1687.7
[2]; Table 47, PBS with SDS, 120 μg/ml, 1 day
  Area (Drug X freebase peak): 1319.2
[2]; Table 47, PBS with SDS, 120 μg/ml, 2 days
  Area (Drug X freebase peak): 1023.1
[2]; Table 47, PBS with SDS, 120 μg/ml, 3 days
  Area (Drug X freebase peak): 722.9
[2]; Table 47, PBS with SDS, 120 μg/ml, 4 days
  Area (Drug X freebase peak): 593.4
[2]; Table 47, PBS with SDS, 120 μg/ml, T = 0
  Area (Drug X freebase peak): 1841.8
[3]; 5 mg/100 μl, cell wraps: 'Soluble, and' / 'transparent'
  Solubility EtOH: Soluble, and

## CC(C)OC(=O)[C@H](C)N[P@](=O)(CO[C@H](C)Cn1cnc2c(N)ncnc21)Oc1ccccc1.CC(C)OC(=O)[C@H](C)N[P@](=O)(CO[C@H](C)Cn1cnc2c(N)ncnc21)Oc1ccccc1.O=C(O)/C=C/C(=O)O [Drug X fumarate]
[3]; 5 mg per 100 mL or μL
  Solubility in EtOH/DMSO (50/50): Soluble, and
[3]; 5 mg per 200 mL or μL
  Solubility in DMSO/Water (50/50): Insoluble
  Solubility in Water: Insoluble

## CC1(C)S[C@@H]2[C@H](NC(=O)Cc3ccccc3)C(=O)N2[C@H]1C(=O)O [Penicillin G, reference compound]
[4]
  Log P: 1.83
  Water solubility: water (0.21 mg/mL)
  Water solubility (words): Slightly soluble in
  pKa: 3.96

## CC(C)(C)CC(=O)OCC(=O)[C@@]12OC(C)(C)O[C@@H]1C[C@H]1[C@@H]3CCC4=CC(=O)C=C[C@]4(C)[C@@]3(F)[C@@H](O)C[C@@]12C [Triamcinolone hexacetonide, triamcinolone hexacetonide]
[5]
  solubility at 48 h: 37.9 ± 0.4 µg/mL (≈ 71.1 µM)
[1]; after 34 days, embodiment statement
  cumulative release from the drug-loaded crosslinked copolymer: about 42 wt %
